Among the data in patent US12209102B2, “Heterocyclic compounds and uses thereof” (Kumquat Biosciences Inc., priority 2022, dated 2025) are IC50 values, retold here.

Test [1] deals with T1, K-Ras G12D (Homo sapiens, UniProt P01116, G12D).
T1 construct: made in house; host or cells: E. coli BL21 (DE3)
The test can be described thus: HTRF resonance energy transfer assay, K-Ras G12D / SOS1 interaction. The following applies: HTRF assay of Example 5; read-out: IC50 against K-Ras G12D. The class given is biochemical. In short, it runs like this:
(§1)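 Buffer about 5 mM HEPES pH 7.4 with ~150 mM NaCl, ~1 mM DTT, 0.05% BSA, 0.0025% (v/v) Igepal. Protein constructs used at molarity matching the IC50 range studied (e.g. ~500 nM). FRET between tagged K-Ras and hSOS1 measured after short incubation.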
On the technique in general: Time-resolved FRET reads energy transfer from a long-lived donor to a nearby acceptor.

Test [2] relates to A549 cells. The test can be described thus: Ras cellular assay, growth of cells with K-Ras G12S mutation (CellTiter-Glo). The format is cell-based. The note with it: Homo sapiens, cell growth, Example 9, G12S mutation, read-out: IC50 against A549 cells. A digest of the protocol: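 Growth inhibition IC50 values come from four-parameter fits of CellTiter-Glo luminescence, read about 6 days after compound addition. G12S-mutant A549 cells (e.g. 800/well, RPMI-1640 + 10% heat-inactivated FBS) were plated in tissue-culture-treated or ultra-low-attachment 384-well format. Dosing began the following day with serial dilutions, e.g. 10 points, 3-fold.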
(Cellular ATP, detected with luciferase, serves as a proxy for viable cell number.)

For test [3], the target named is T2, K-Ras WT (Homo sapiens, UniProt P01116).
T2 construct: made in house; host or cells: E. coli BL21 (DE3)
Briefly: HTRF resonance energy transfer assay, K-Ras WT / SOS1 interaction. The format is biochemical. The following applies: HTRF assay of Example 5; read-out: IC50 against K-Ras WT. In short, it runs like this: as §1

The test system of test [4] is GP2D cells. Briefly: Ras cellular assay, growth of cells with K-Ras G12D mutation (CellTiter-Glo). The class given is cell-based. The following applies: cell growth, Example 9, G12D mutation, read-out: IC50 against GP2D cells.
Test [5] deals with T3, K-Ras G12V (Homo sapiens, UniProt P01116, G12V).
T3 construct: made in house; host or cells: E. coli BL21 (DE3)
Briefly: HTRF resonance energy transfer assay, K-Ras G12V / SOS1 interaction. The format is biochemical. The following applies: HTRF assay of Example 5; read-out: IC50 against K-Ras G12V. A digest of the protocol:
as §1

Test [6] has as its system SW620 cells. Briefly: Ras cellular assay, growth of cells with K-Ras G12V mutation (CellTiter-Glo). The following applies: Homo sapiens, SW-620; cell growth, Example 9, G12V mutation; read-out: IC50 against SW620 cells. The format is cell-based. In short, it runs like this:
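IC50 values came from a four-parameter fit of CellTiter-Glo viability, read roughly 6 days after dosing with e.g. a 10-point threefold dilution series. G12V-mutant SW620 cells (e.g. 800 per well) had been plated the previous day in RPMI-1640/10% heat-inactivated FBS, on tissue culture-treated or ultra-low attachment plates.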

Test [7] concerns the target T4, K-Ras G12S (Homo sapiens, UniProt P01116, G12S).
T4 construct: made in house; host or cells: E. coli BL21 (DE3)
Briefly: HTRF resonance energy transfer assay, K-Ras G12S / SOS1 interaction. The format is biochemical. The note with it: HTRF assay of Example 5; read-out: IC50 against K-Ras G12S. A digest of the protocol:
as §1

T2 sequence (P01116 1-188 isoform P01116-2): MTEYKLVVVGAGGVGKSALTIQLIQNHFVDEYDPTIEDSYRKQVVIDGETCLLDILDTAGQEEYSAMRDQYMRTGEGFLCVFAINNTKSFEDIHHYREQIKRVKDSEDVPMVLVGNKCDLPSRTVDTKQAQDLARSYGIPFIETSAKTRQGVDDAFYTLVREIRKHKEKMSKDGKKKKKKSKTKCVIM
T4 sequence (P01116 1-188 isoform P01116-2 G12S): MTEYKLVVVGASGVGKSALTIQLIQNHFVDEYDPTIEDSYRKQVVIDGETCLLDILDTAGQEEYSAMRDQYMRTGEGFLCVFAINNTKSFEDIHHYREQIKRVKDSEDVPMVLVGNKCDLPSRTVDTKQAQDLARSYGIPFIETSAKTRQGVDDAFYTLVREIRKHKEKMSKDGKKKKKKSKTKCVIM
T1 sequence (P01116 1-188 isoform P01116-2 G12D): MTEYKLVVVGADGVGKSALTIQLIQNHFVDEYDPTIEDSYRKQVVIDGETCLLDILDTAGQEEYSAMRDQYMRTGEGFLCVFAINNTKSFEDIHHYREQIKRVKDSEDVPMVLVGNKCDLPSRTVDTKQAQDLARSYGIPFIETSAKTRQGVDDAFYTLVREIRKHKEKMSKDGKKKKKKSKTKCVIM
T3 sequence (P01116 1-188 isoform P01116-2 G12V): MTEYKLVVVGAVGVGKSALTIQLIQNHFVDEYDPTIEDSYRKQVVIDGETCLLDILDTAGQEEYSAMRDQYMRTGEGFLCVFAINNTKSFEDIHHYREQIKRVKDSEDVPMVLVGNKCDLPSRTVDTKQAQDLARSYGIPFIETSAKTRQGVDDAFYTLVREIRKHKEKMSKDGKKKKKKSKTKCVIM

On to `N#Cc1c(N)sc2c(F)ccc(-c3c(Cl)c4c5c(nc(OC[C@@]67CCCN6C[C@H](F)C7)nc5c3F)N(CC(F)F)CC(CO)O4)c12` (stereo partly drawn) [Compound 1002, 2-amino-4-(8-chloro-4-(2,2-difluoroethyl)-10-fluoro-2-(((2R,7aS)-2-fluorotetrahydro-1H-pyrrolizin-7a(5H)-yl)methoxy)-6-(hydroxymethyl)-5,6-dihydro-4H-[1,4]oxazepino[5,6,7-de]quinazolin-9-yl)-7-fluorobenzo[b]thiophene-3-carbonitrile], for which the IC50 (usually the point on the concentration scale where inhibition reaches its midpoint) was below 100 nM in test [1]; below 5000 nM in test [2]; below 100 nM in test [3]; below 500 nM in test [4]; below 100 nM in test [5]; below 5000 nM in test [6]. Further, the IC50 in test [7] is below 100 nM.
Turning to `CN(C)CCCN1CCOc2c(Cl)c(-c3ccc(F)c4sc(N)c(C#N)c34)c(F)c3nc(OC[C@@]45CCCN4C[C@H](F)C5)nc1c23` [Compound 1020, 2-amino-4-(8-chloro-4-(3-(dimethylamino)propyl)-10-fluoro-2-(((2R,7aS)-2-fluorotetrahydro-1H-pyrrolizin-7a(5H)-yl)methoxy)-5,6-dihydro-4H-[1,4]oxazepino[5,6,7-de]quinazolin-9-yl)-7-fluorobenzo[b]thiophene-3-carbonitrile], the IC50 is below 100 nM in test [1]; below 5000 nM in test [2]; below 100 nM in test [3]; below 500 nM in test [4]; below 100 nM in test [5]; below 5000 nM in test [6]. In addition, in test [7], the IC50 is below 100 nM.
Take `C[C@H]1CN(CC(F)F)c2nc(OC[C@@]34CCCN3C[C@H](F)C4)nc3c(F)c(-c4ccc(F)c5sc(N)c(C#N)c45)c(Cl)c(c23)O1` [Compound 1021, 2-amino-4-((6S)-8-chloro-4-(2,2-difluoroethyl)-10-fluoro-2-(((2R,7aS)-2-fluorotetrahydro-1H-pyrrolizin-7a(5H)-yl)methoxy)-6-methyl-5,6-dihydro-4H-[1,4]oxazepino[5,6,7-de]quinazolin-9-yl)-7-fluorobenzo[b]thiophene-3-carbonitrile]: the IC50 in test [1] was below 100 nM; in test [2], below 5000 nM; in test [3], below 100 nM; in test [4], below 500 nM; in test [5], below 100 nM; in test [6] it was below 5000 nM. Besides, the IC50 in test [7] is below 100 nM.
With `N#Cc1c(N)sc2c(F)ccc(-c3c(Cl)c4c5c(nc(OC[C@@]67CCCN6C[C@H](F)C7)nc5c3F)N(C3CCN(C(=O)C[C@H]5CCCO5)C3)CCO4)c12` (stereo partly drawn) [Compound 1024, 2-amino-4-(8-chloro-10-fluoro-2-(((2R,7aS)-2-fluorotetrahydro-1H-pyrrolizin-7a(5H)-yl)methoxy)-4-(1-(2-((R)-tetrahydrofuran-2-yl)acetyl)pyrrolidin-3-yl)-5,6-dihydro-4H-[1,4]oxazepino[5,6,7-de]quinazolin-9-yl)-7-fluorobenzo[b]thiophene-3-carbonitrile], the IC50 in test [1] is below 100 nM; in test [2] it was below 5000 nM; in test [3], below 100 nM; in test [4] it was below 500 nM; in test [5] it was below 100 nM; in test [6], below 5000 nM. Further, the IC50 in test [7] was below 100 nM.
`CC(C)N1CCOc2c(Cl)c(-c3ccc(F)c4sc(N)c(C#N)c34)c(F)c3nc(OC[C@@]45CCCN4C[C@H](F)C5)nc1c23` [Compound 1025, 2-amino-4-(8-chloro-10-fluoro-2-(((2R,7aS)-2-fluorotetrahydro-1H-pyrrolizin-7a(5H)-yl)methoxy)-4-isopropyl-5,6-dihydro-4H-[1,4]oxazepino[5,6,7-de]quinazolin-9-yl)-7-fluorobenzo[b]thiophene-3-carbonitrile]: the IC50 in test [1] was below 100 nM; in test [2], below 5000 nM; in test [3], below 100 nM; in test [4], below 500 nM; in test [5], below 100 nM; in test [6] it was below 5000 nM. Further, the IC50 in test [7] was below 100 nM.
For `N#Cc1c(N)sc2c(F)ccc(-c3c(Cl)c4c5c(nc(OC[C@@]67CCCN6C[C@H](F)C7)nc5c3F)N(CC(F)F)[C@@H](CNC=O)CO4)c12` [Compound 1028, N-(((5S)-9-(2-amino-3-cyano-7-fluorobenzo[b]thiophen-4-yl)-8-chloro-4-(2,2-difluoroethyl)-10-fluoro-2-(((2R,7aS)-2-fluorotetrahydro-1H-pyrrolizin-7a(5H)-yl)methoxy)-5,6-dihydro-4H-[1,4]oxazepino[5,6,7-de]quinazolin-5-yl)methyl)formamide], the IC50 is below 100 nM in test [1]; below 5000 nM in test [2]; below 100 nM in test [3]; below 500 nM in test [4]; below 100 nM in test [5]; below 5000 nM in test [6]. Besides, in test [7], the IC50 is below 100 nM.
Consider `COC1(C(=O)N2CCC(N3CCOc4c(Cl)c(-c5ccc(F)c6sc(N)c(C#N)c56)c(F)c5nc(OC[C@@]67CCCN6C[C@H](F)C7)nc3c45)C2)CC1` (stereo partly drawn) [Compound 1038, 2-amino-4-(8-chloro-10-fluoro-2-(((2R,7aS)-2-fluorotetrahydro-1H-pyrrolizin-7a(5H)-yl)methoxy)-4-(1-(1-methoxycyclopropane-1-carbonyl)pyrrolidin-3-yl)-5,6-dihydro-4H-[1,4]oxazepino[5,6,7-de]quinazolin-9-yl)-7-fluorobenzo[b]thiophene-3-carbonitrile], for which the IC50 is below 100 nM in test [1]; below 5000 nM in test [2]; below 100 nM in test [3]; below 500 nM in test [4]; below 100 nM in test [5]; below 5000 nM in test [6]. The concentration for half-maximal inhibition (IC50) in test [7] is below 100 nM.
`CC(C)(C#N)CN1CCOc2c(Cl)c(-c3ccc(F)c4sc(N)c(C#N)c34)c(F)c3nc(OC[C@@]45CCCN4C[C@H](F)C5)nc1c23` [Compound 1048, 2-amino-4-(8-chloro-4-(2-cyano-2-methylpropyl)-10-fluoro-2-(((2R,7aS)-2-fluorotetrahydro-1H-pyrrolizin-7a(5H)-yl)methoxy)-5,6-dihydro-4H-[1,4]oxazepino[5,6,7-de]quinazolin-9-yl)-7-fluorobenzo[b]thiophene-3-carbonitrile]: the IC50 in test [1] was below 100 nM; in test [2] it was below 5000 nM; in test [3], below 100 nM; in test [4], below 500 nM; in test [5], below 100 nM; in test [6], below 5000 nM. In test [7], the IC50 is below 100 nM.
Regarding `N#Cc1c(N)sc2c(F)ccc(-c3c(Cl)c4c5c(nc(OC[C@@]67CCCN6C[C@H](F)C7)nc5c3F)N(C3CCN(C=O)C3)CCO4)c12` (stereo partly drawn) [Compound 1052, 2-amino-4-(8-chloro-10-fluoro-2-(((2R,7aS)-2-fluorotetrahydro-1H-pyrrolizin-7a(5H)-yl)methoxy)-4-(1-formylpyrrolidin-3-yl)-5,6-dihydro-4H-[1,4]oxazepino[5,6,7-de]quinazolin-9-yl)-7-fluorobenzo[b]thiophene-3-carbonitrile], the concentration for half-maximal inhibition (IC50) in test [1] was below 100 nM; in test [2], below 5000 nM; in test [3], below 100 nM; in test [4], below 500 nM; in test [5], below 100 nM; in test [6], below 5000 nM. The IC50 in test [7] is below 100 nM.
For the molecule `N#Cc1c(N)sc2c(F)ccc(-c3c(Cl)c4c5c(nc(OC[C@@]67CCCN6C[C@H](F)C7)nc5c3F)N(CC(F)F)[C@@H](C(F)F)CO4)c12` [Compound 1057, 2-amino-4-((5R)-8-chloro-4-(2,2-difluoroethyl)-5-(difluoromethyl)-10-fluoro-2-(((2R,7aS)-2-fluorotetrahydro-1H-pyrrolizin-7a(5H)-yl)methoxy)-5,6-dihydro-4H-[1,4]oxazepino[5,6,7-de]quinazolin-9-yl)-7-fluorobenzo[b]thiophene-3-carbonitrile], the IC50 in test [1] was below 100 nM; in test [2], below 5000 nM; in test [3], below 100 nM; in test [4] it was below 500 nM; in test [5], below 100 nM; in test [6] it was below 5000 nM. In addition, the IC50 in test [7] was below 100 nM.
